Assay results from ChEMBL document CHEMBL3301361, “Experimental in vitro DMPK and physicochemical data on a set of publicly disclosed compounds”.

How the values were obtained:
[1] = in vitro; details: human, plasma
[2] = in vitro; details: SD, HW or BN, rat, plasma
[3] = in vitro; details: mouse, plasma
[4] = in vitro; details: human, hepatocytes
[5] = in vitro; details: Beagle, dog, plasma
[6] = physchem; details: octan-1-ol/water
[7] = in vitro; details: human
[8] = in vitro; details: hepatocytes
[9] = physchem

SMILES | fraction unbound at 5 h ([1]; PPB) | fraction unbound at 5 h [2] | fraction unbound at 5 h [3] | logD ([6]; pH 7.4, LogD7.4) | further results
CC(C)[C@H](C(=O)Nc1nccs1)c1ccc(Cl)cc1 | 0.0074 | 0.0106 | 0.0111 | – | hepatocyte CLint [4]: 12 µL/min/1e6 cells
CN(C)CCC1CCN(c2cc(C(=O)NC[C@H]3CC[C@H](CNC(=O)OC(C)(C)C)CC3)c3ccccc3n2)CC1 | 0.0335 | 0.04 | 0.0079 | – | fraction unbound at 5 h [5]: 0.0066
CCc1c(C(=O)C(N)=O)c2c(OCC(=O)O)cccc2n1Cc1ccccc1 [VARESPLADIB] | – | 0.0768 | 0.22 | – | fraction unbound at 5 h [1]: 0.124; fraction unbound at 5 h [5]: 0.129
N#Cc1c(O)c2c(-c3ccc(-c4ccccc4O)cc3)csc2[nH]c1=O | – | – | 0.0063 | – | microsomal CLint ([7]; liver microsomes): < 3 µL/min/mg; hepatocyte CLint [8]: 52.5 µL/min/1e6 cells
CCc1c(C(=O)C(N)=O)c2c(OCC(=O)OC)cccc2n1Cc1ccccc1 [VARESPLADIB METHYL] | – | – | 0.232 | – | hepatocyte CLint [4]: 50.1 µL/min/1e6 cells
O=C(c1c2ccccc2cc2ccccc12)N1CCC(N2CCC[C@@H](C(=O)N3CCOCC3)C2)CC1 | 0.0661 | 0.266 | 0.266 | – | fraction unbound at 5 h [5]: 0.289
C[C@H](Nc1ncc(F)c(Nc2cc(C3CC3)[nH]n2)n1)c1ccc(F)cn1 | 0.0801 | 0.035 | 0.0418 | 3.14 | fraction unbound at 5 h [5]: 0.183
c1ccc2[nH]c(CCc3nc4ccccc4[nH]3)nc2c1 | 0.16 | 0.201 | 0.19 | 3.3 | –
Cc1cc(N2CCC[C@@H]2C(=O)NCCc2ccc3c(c2)OCO3)nc(-n2ccnc2)n1 | 0.19 | 0.22 | 0.154 | 2.5 | microsomal CLint ([7]; liver microsomes): > 150 µL/min/mg
Cc1ccccc1-n1c(Cn2cnc3c(N)ncnc32)nc2cccc(C)c2c1=O | – | 0.24 | 0.0801 | – | logD ([6]; pH 7.4): 2.6; fraction unbound at 5 h [1]: 0.0136; hepatocyte CLint [8]: 24 µL/min/1e6 cells
C[C@H](Nc1ncc(Cl)c(Nc2cc(C3CC3)[nH]n2)n1)c1ccc(F)cn1 | 0.0358 | 0.009 | 0.0358 | – | fraction unbound at 5 h [5]: 0.11
CC(C)[C@H](O)C(=O)N[C@@H](C)C(=O)N[C@@H]1C(=O)N(C)CCc2ccccc21 | 0.803 | 0.792 | 0.858 | – | –
CCCN(c1cccc(C#N)c1)P(=O)(c1ccccc1)c1ccccc1 | – | 0.0633 | 0.0467 | – | fraction unbound at 5 h [1]: 0.0056
CC(C)NC[C@@H](O)COc1cccc2ccccc12 [DEXPROPRANOLOL] | – | 0.179 | 0.179 | – | fraction unbound at 5 h [1]: 0.176
Cc1ncccc1Oc1ncnc(OC2CCN(C(=O)OC(C)C)CC2)c1C | 0.0079 | 0.0313 | 0.0149 | 3.8 | –
c1ccc([C@@H]([C@H](c2ccccc2)N2CCCCC2)N2CCCCC2)cc1 | 0.0988 | 0.319 | 0.262 | – | –
CN(C)C(=O)C(CCN1CCC(O)(c2ccc(Cl)cc2)CC1)(c1ccccc1)c1ccccc1 [LOPERAMIDE] | – | 0.0544 | 0.0358 | – | pKa [9]: 9.14; logD ([6]; pH 7.4): 3.47; fraction unbound at 5 h [1]: 0.0736
CC(C)Cc1c(C(=O)C(N)=O)c2c(OCC(=O)O)cccc2n1Cc1ccccc1 | – | 0.0187 | 0.0366 | – | fraction unbound at 5 h [1]: 0.0313
CCOc1cc(CN2CCC(NC(=O)c3cncc(C)c3)CC2)cc(OCC)c1-c1ccc(F)cc1 | 0.0149 | 0.0119 | 0.0139 | – | –
O=C1COc2nccc(-c3ccccc3F)c2CN1Cc1cc(C(F)(F)F)cc(C(F)(F)F)c1 | 0.0063 | 0.0081 | 0.0095 | – | –
CCOc1ncc(C)c2c1[C@H](c1ccc(C#N)cc1OC)C(C(N)=O)=C(C)N2 [FINERENONE] | 0.0752 | 0.0007 | 0.0007 | 2.51 | microsomal CLint ([7]; microsomes): 97.7 µL/min/mg; hepatocyte CLint [8]: 26.9 µL/min/1e6 cells
O=C1N(c2ccccc2)c2ccccc2C1(Cc1ccncc1)Cc1ccncc1 [LINOPIRDINE] | 0.004 | 0.101 | 0.179 | – | –
CCOC(=O)C1=C(C)NC(C)=C(C(C)=O)[C@H]1c1cccc2c(=O)cc(C)oc12 | 0.148 | 0.0008 | 0.0016 | 2.63 | pKa [9]: 2.22; microsomal CLint ([7]; liver microsomes): > 150 µL/min/mg; hepatocyte CLint [8]: 105 µL/min/1e6 cells; hepatocyte CLint [4]: 45.7 µL/min/1e6 cells
CC(C)Oc1cc(Nc2nc(N[C@@H](C)c3ncc(F)cn3)ncc2Cl)n[nH]1 | 0.112 | – | 0.0736 | – | fraction unbound at 5 h [5]: 0.204

Further lines, with some results ahead:

fraction unbound at 5 h ([1]; PPB) | fraction unbound at 5 h [2] | fraction unbound at 5 h [3] | logD ([6]; pH 7.4, LogD7.4) | SMILES | further results
0.768 | 0.78 | 0.711 | 0.31 | N[C@@H](CC(=O)N1CCn2c(nnc2C(F)(F)F)C1)Cc1cc(F)c(F)cc1F [SITAGLIPTIN] | –
0.289 | 0.262 | 0.17 | 2.7 | CS(=O)(=O)N1CCC(NC(=O)NC23CC4CC(CC(C4)C2)C3)CC1 | –
0.17 | 0.119 | 0.137 | 2 | O=c1cc(OCc2ccccc2)ccn1-c1ccc2c(cnn2CCN2CCCC2)c1 | fraction unbound at 5 h [5]: 0.16
0.0014 | 0.0011 | 0.0013 | – | O=C(CN1CCN(Cc2ccn(-c3ccc(C(F)(F)F)cn3)c2)CC1)NC(c1ccc(F)cc1)c1ccc(F)cc1 | fraction unbound at 5 h [5]: 0.0006
0.0606 | 0.0366 | 0.016 | 2.9 | CC(C)(F)C[C@H](N[C@@H](c1ccc(-c2ccc(S(C)(=O)=O)cc2)cc1)C(F)(F)F)C(=O)NC1(C#N)CC1 [ODANACATIB] | –
0.0014 | 0.0014 | 0.0088 | 2 | Cc1nccc(-c2ccc(-c3nc4ccncc4c(O)c3C#N)cc2)c1Cl | –
– | – | 0.0022 | – | Cc1cccc(-c2ccc(CNC(=O)CCCc3ccc4cccnc4n3)cc2)c1 | hepatocyte CLint [4]: 60.3 µL/min/1e6 cells
0.0268 | 0.0055 | 0.03 | 2.4 | O=C(Nc1ccc(N2CCNCC2)cc1)c1ccc(-c2ccc(Cl)cc2)o1 | hepatocyte CLint [4]: < 3 µL/min/1e6 cells
0.0149 | 0.0149 | 0.0268 | – | CC1(CCCc2cc(=O)oc3[nH]c(=O)[nH]c(=O)c23)CC1 [SCH-900271] | microsomal CLint ([7]; liver microsomes): < 3 µL/min/mg; hepatocyte CLint [8]: 42.7 µL/min/1e6 cells; hepatocyte CLint [4]: < 3 µL/min/1e6 cells
0.139 | 0.0661 | 0.0209 | 3.4 | CO[C@H]1CC[C@]2(CC1)Cc1ccc(-c3cncc(Br)c3)cc1C21N=C(C)C(N)=N1 (some centres undefined) | –
0.0034 | 0.0051 | 0.0099 | – | COC(=O)N[C@@H](C)C#Cc1cnc(Oc2ccc(OC(C)C)cc2)s1 | –
0.0262 | 0.0428 | 0.0661 | – | c1ccc2c(c1)CC(N1CCN(c3cccc4c3OCCO4)CC1)C2 | –
0.46 | – | 0.671 | 0.8 | C[C@@]1(c2cc(-c3cncnc3)c(F)cc2F)CCSC(N)=N1 [LY-2811376] | fraction unbound at 5 h [5]: 0.629
0.201 | – | 0.349 | 3.4 | CO[C@H]1CC[C@]2(CC1)Cc1ccc(OCC(C)C)cc1C21N=C(C)C(N)=N1 (some centres undefined) | hepatocyte CLint [4]: 7.24 µL/min/1e6 cells
0.04 | 0.0447 | 0.04 | – | COc1ccc2cc(S(=O)(=O)N[C@H](CC(=O)N[C@H](Cc3ccc(CN4[C@H](C)CCC[C@@H]4C)cc3)C(=O)N(C)C(C)C)c3ccc4c(c3)OCO4)ccc2c1 | –
0.22 | 0.119 | 0.0818 | – | CC(O)(C(=O)Nc1ccc(S(=O)(=O)N2CCCC2)cc1)C(F)(F)F (centres undefined) | –
0.0008 | – | 0.0043 | – | FC(F)(F)Oc1ccc(-c2nnc(CCCCc3ccc4cccnc4n3)o2)cc1Cl | hepatocyte CLint [4]: 24.6 µL/min/1e6 cells
0.001 | – | 0.0009 | 4.3 | CC(C)C[C@H](CO)Nc1nc(S[C@@H](C)c2ccccc2)nc2[nH]c(=O)sc12 | fraction unbound at 5 h [5]: 0.0019
0.0017 | 0.0015 | 0.0019 | – | COc1ccc(Cl)cc1C1(F)C(=O)Nc2cc(C(F)(F)F)ccc21 (centres undefined) | –
0.0268 | 0.0171 | 0.03 | – | CC1=C(C(=O)OCc2ccccc2)C(c2cccs2)NC(=O)N1 (centres undefined) | –
0.173 | – | 0.36 | 1.46 | COc1ccc2ncc(F)c(CCN3CCC(NCc4cc5c(cn4)OCCO5)CC3)c2n1 | fraction unbound at 5 h [5]: 0.0968; hepatocyte CLint [8]: 138 µL/min/1e6 cells
0.0055 | 0.0061 | 0.0059 | – | CS(=O)(=O)Nc1ccc2[nH]c(Cc3ccc(Oc4ccccc4)cc3)nc2c1 | –
0.139 | 0.139 | 0.151 | – | Cc1cc(C)c(S(=O)(=O)NCc2ccncc2)c(C)c1 | –
0.232 | 0.19 | 0.262 | – | C[C@@H]1CN(C(=O)[C@@H]2CN(C(C)(C)C)C[C@H]2c2ccc(F)cc2F)C[C@H](C)[C@@]1(O)c1ccccc1 [PF-00446687] | hepatocyte CLint [4]: 25.1 µL/min/1e6 cells
